The text below walks through data of patent publication US10222368B2 (priority 2012, dated 2019).

In one assay the test system is α7nAChR/Aβ42 complexes. Put plainly: Protein A and Protein G capture plate assay in lymphocytes. It counts as cell-based, human. The following applies: 1 nM. As for the experimental part: Each sample was assessed in duplicate.
Assay [1] concerns the target FLNA association with TLR4 (Mus musculus, UniProt Q8BTM8). The experiment in a line: ICV Aβ42 infusion mouse model, synaptosome co-immunoprecipitation. As to conditions: 10 mg/kg C0105 i.p. twice daily, 2 weeks; prefrontal cortex and hippocampus.
In assay [2] the target is T1, α7nAChR-FLNA complex (Homo sapiens, UniProt P21333).
T1 construct: To determine the levels of FLNA-α7nAChR, FLNA-TLR4 and α7nAChR-Aβ42 complexes in the lymphocytes; endogenous in cells; host or cells: lymphocytes from venous blood of AD patients and control subjects (ex vivo)
The experiment in a line: 96-well FITC-solid phase method in lymphocytes. In kind it is cell-based. As to conditions: 1 nM C0105, 30 min; AD lymphocytes or Aβ42-treated control lymphocytes. An excerpt:
(§1) FIG. 2 illustrates the utility of a 96-well FITC-solid phase assay method to assess, in lymphocytes from AD patients and control subjects, levels of 1) the FLNA-α7nAChR association 2) the FLNA-TLR4 association and 3) α7nAChR-Aβ42 complexes. The top two panels show α7nAChR and TLR4 levels detected using respective FITC-anti-α7nAChR or FITC-anti-TLR4 antibodies after capturing FLNA coupled to α7nAChR and TLR4, respectively, with an anti-FLNA antibody coated on the microtiter solid phase plate.
(§2) To prepare lymphocytes, 7 ml of venous blood was collected into an EDTA-containing collecting tube or S-monovette (Sarstedt). Collected blood (6 ml) was layered onto 6 ml of Histopaque®-1077 (Sigma) at 25° C., and the anticoagulated blood was centrifuged at 400×g for 30 minutes (25° C.) to yield plasma (top layer) and lymphocytes (opaque interface). The lymphocytes were washed twice by mixing with 6 ml of oxygenated K-R followed by centrifugation at 250×g for 10 minutes and resuspension. […]
(§3) After two 1-minute washes with 50 mM Tris HCl (pH 7.4), each well was incubated in 0.5 μg/well FITC-conjugated anti-mouse IgG (human and mouse absorbed) for 1 hour at 25° C. Plates were washed twice with 200 μl ice-cold Tris HCl, pH 7.4 and the residual FITC-Aβ42 signals were determined by multimode plate reader, DTX880 (Beckman).

A further assay deals with T2, TLR4-FLNA complex (Homo sapiens, UniProt P21333).
T2 construct: To determine the levels of FLNA-α7nAChR, FLNA-TLR4 and α7nAChR-Aβ42 complexes in the lymphocytes; endogenous in cells; host or cells: lymphocytes from venous blood of AD patients and control subjects (ex vivo)
The experiment in a line: 96-well FITC-solid phase method in lymphocytes. It counts as cell-based. As to conditions: 1 nM C0105, 30 min; AD lymphocytes or Aβ42-treated control lymphocytes.
Excerpt: as §1, §2, §3

The target in another assay is T3, TLR4/FLNA (Rattus norvegicus, UniProt A0A8I5ZV49).
T3 construct: from tissue; host or cells: rat frontal cortical synaptosomes
Put plainly: Rat frontal cortical synaptosomes treated with Aβ42, anti-FLNA immunoprecipitation / Western blot. In kind it is cell-based. As to conditions: 1 or 10 nM compound, simultaneously or 10 min prior to 0.1 μM Aβ42; Dunnett's test. As for the experimental part:
(§4) The complexes in the solubilized synaptosomes, and α7nAChR, TLR4 and FLNA levels in the anti-FLNA immunoprecipitates were determined by Western blotting (FIG. 15A) in which numerals outside of and to the left of the blots are as discussed before. Amounts present in the blots were quantified by densitometry (FIG. 15B). […] Structural formulas of the compounds used in this and the other figures are provided hereinafter.
(In general: A western blot detects proteins with antibodies after separation by electrophoresis.)

In assay [3] the target is T1, α7nAChR-FLNA complex. The experiment in a line: Lymphocyte co-immunoprecipitation / Western blot. It counts as cell-based.
In another assay the test system is Aβ42-α7nAChR complex. The experiment in a line: Lymphocyte co-immunoprecipitation / Western blot. In kind it is cell-based, human.
Another assay addresses T4, α7nAChR-FLNA association (Rattus norvegicus, UniProt A0A8I5ZV49).
T4 construct: from tissue; host or cells: rat frontal cortical synaptosomes
Put plainly: Rat frontal cortical synaptosomes treated with Aβ42, anti-FLNA immunoprecipitation / Western blot. It counts as cell-based. The following applies: 1 or 10 nM compound, simultaneously or 10 min prior to 0.1 μM Aβ42.
Excerpt: The α7nAChR-FLNA complexes in the solubilized synaptosomes were immunoprecipitated with immobilized anti-FLNA and the α7nAChR and FLNA levels in the anti-FLNA immunoprecipitates determined by Western blotting (FIG. 14A) and quantified by densitometry for illustrative compounds (FIG. 14B). n=3. […] The letter designation “M” that accompanies many of the “C-series” compounds is omitted from FIG. 14, the remaining figures and most discussions of the figures and compounds hereinafter for ease in expression. Structural formulas of the compounds used in this and the other figures are provided hereinafter.
as §4

Setting [4] is: 1 nM C0105, lymphocytes of 10 YCI controls.

SMILES strings stand for the structures.

T1 sequence (P21333 2-2647 limits assumed, one chain of several): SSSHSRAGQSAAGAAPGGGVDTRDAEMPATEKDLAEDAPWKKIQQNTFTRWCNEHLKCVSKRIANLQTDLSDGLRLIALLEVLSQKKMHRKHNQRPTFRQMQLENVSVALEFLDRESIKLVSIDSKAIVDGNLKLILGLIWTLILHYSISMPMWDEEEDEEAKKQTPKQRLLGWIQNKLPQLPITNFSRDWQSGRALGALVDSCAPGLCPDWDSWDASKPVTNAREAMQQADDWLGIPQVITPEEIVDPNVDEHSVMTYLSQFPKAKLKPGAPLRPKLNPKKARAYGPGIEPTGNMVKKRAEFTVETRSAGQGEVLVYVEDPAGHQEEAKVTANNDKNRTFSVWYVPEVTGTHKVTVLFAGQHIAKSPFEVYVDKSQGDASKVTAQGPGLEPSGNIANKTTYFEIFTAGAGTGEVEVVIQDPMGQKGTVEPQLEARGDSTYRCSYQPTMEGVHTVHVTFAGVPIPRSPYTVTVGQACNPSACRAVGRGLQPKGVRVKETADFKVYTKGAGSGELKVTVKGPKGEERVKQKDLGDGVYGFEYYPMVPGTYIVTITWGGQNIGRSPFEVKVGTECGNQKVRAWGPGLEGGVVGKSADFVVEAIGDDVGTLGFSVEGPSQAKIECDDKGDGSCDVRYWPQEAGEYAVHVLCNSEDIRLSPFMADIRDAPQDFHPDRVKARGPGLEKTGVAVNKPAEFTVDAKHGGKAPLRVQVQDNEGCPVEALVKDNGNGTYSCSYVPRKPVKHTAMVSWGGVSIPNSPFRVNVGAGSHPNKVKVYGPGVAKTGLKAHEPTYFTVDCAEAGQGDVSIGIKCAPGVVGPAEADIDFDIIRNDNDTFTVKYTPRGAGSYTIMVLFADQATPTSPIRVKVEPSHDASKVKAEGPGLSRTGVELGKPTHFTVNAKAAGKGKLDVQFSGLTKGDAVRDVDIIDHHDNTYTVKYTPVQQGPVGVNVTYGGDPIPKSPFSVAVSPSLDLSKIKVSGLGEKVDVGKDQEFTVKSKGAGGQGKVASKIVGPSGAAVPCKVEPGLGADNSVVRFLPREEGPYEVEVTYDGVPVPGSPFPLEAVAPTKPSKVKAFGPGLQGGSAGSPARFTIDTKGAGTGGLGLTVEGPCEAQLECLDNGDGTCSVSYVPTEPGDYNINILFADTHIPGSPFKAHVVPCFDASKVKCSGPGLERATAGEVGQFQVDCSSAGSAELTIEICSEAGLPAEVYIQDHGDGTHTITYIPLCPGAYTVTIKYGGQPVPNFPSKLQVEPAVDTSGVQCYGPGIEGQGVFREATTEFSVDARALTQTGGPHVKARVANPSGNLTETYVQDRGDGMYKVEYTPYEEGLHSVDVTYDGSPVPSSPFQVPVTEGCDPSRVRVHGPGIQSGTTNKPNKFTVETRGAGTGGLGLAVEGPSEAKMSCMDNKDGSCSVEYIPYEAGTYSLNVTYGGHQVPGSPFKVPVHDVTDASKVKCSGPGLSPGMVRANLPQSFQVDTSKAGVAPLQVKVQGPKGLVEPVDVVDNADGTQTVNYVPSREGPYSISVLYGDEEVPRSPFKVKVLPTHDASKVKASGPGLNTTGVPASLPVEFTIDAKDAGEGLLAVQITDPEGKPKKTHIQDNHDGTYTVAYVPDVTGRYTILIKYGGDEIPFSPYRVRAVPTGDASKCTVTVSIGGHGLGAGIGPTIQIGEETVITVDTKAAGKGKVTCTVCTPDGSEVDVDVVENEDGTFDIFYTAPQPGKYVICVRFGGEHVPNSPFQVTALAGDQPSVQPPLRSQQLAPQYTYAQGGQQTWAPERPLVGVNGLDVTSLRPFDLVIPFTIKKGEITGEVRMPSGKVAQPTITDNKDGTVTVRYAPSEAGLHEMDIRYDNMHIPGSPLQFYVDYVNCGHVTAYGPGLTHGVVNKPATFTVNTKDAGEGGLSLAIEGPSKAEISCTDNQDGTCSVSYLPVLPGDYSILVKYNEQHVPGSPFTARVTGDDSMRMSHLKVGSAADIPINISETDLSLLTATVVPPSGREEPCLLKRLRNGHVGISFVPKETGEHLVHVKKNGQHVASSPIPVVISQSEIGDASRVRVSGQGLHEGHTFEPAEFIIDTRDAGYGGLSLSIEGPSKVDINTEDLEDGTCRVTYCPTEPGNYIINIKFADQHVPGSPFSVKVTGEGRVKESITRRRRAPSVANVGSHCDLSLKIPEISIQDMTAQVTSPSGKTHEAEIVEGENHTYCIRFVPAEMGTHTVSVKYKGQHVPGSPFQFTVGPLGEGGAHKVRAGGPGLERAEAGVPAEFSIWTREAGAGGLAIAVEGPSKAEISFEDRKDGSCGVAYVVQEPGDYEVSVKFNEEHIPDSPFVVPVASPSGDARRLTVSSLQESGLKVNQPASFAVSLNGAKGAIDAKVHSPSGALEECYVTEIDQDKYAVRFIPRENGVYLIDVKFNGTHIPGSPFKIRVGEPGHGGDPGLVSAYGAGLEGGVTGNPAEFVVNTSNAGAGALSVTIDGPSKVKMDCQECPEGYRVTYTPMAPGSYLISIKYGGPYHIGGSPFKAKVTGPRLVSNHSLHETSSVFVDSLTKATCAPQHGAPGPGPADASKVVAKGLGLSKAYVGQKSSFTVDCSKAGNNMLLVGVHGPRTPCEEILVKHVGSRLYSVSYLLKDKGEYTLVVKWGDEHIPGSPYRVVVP
T2 sequence (P21333 2-2647 limits assumed, one chain of several): as above

In the case of `CN1CCC2(CC1)NCC(=O)N2Cc1ccccc1` [Compound C0105], the “Decrease in amount of α7nAChR/Aβ42 complexes” value with α7nAChR/Aβ42 complexes (AD lymphocytes) is “approximately 50%”. Moreover, the “Response of α7nAChR/Aβ42 complexes (in words)” value in the assay on α7nAChR/Aβ42 complexes (YCI lymphocytes) is “essentially non-responsive”. Besides, in assay [1], the “Effect on Aβ42-induced FLNA association with TLR4 (in words)” value is “reduced Aβ42-induced increases in FLNA associations”. Besides, on α7nAChR-FLNA complex [2], the “Effect on FLNA-α7nAChR association (in words)” value is recorded as “reduce all three associations”. Also, the “Effect on FLNA-TLR4 association (in words)” value on TLR4-FLNA complex is given as “reduce all three associations”. In addition, the “TLR4/FLNA ratio versus Aβ42 alone (in words)” value at TLR4/FLNA is reported as “statistically different from Aβ42 alone”. Moreover, the inhibition at 0.001 µM on α7nAChR-FLNA complex [3] (1 nM C0105, 30 min, lymphocytes of 20 AD subjects, read-out: Reduction of α7nAChR/FLNA complex level (% inhibition)) is ~50%. Besides, the “Effect on amount of α7nAChR-FLNA complexes (in words), pilot study” value on α7nAChR-FLNA complex [3] (1 nM C0105, Aβ42-treated control and untreated AD lymphocytes) is given as “decreases the amount of α7nAChR-FLNA complexes”. Also, the “Effect on α7nAChR/FLNA complex level (in words)” value on α7nAChR-FLNA complex [3] (setting [4]) was “no discernible effect”. Also, the “Reduction of α7nAChR/Aβ42 complex level (% inhibition)” value with Aβ42-α7nAChR complex (1 nM C0105, 30 min, lymphocytes of 20 AD subjects) is reported as “approximately 50%”. In the assay on Aβ42-α7nAChR complex (setting [4]), the “Effect on α7nAChR/Aβ42 complex level (in words)” value was “no discernible effect”. Further, the “Effect on Aβ42-induced α7nAChR-FLNA association (in words)” value on α7nAChR-FLNA association is given as “reduce α7nAChR-FLNA association”.
